The target of one data set is T1, Aβ1−42 fibrils (Homo sapiens, UniProt P05067).
T1 construct: 1 mg of β-amyloid1–42 peptide (Abcam, Cambridge, UK); purchased Abcam
Kind of data set: Competition binding assay against [^3H]DCVJ, Aβ1−42 fibrils. To be noted: [^3H]DCVJ was used (10 nM); Aβ1−42 aggregates 125 nM; read-out: Ki Aβ. As for the experimental part:
After the dissolution of 1 mg of β-amyloid1–42 peptide (Abcam, Cambridge, UK) in 50 μL of DMSO, 925 μL of Milli-Q® water was added to it, and the mixture was stirred. Finally, 25 μL of 1M Tris HCl, pH 7.4 was added to bring the final peptide concentration to 1 mg/mL. The mixture was then left to incubate at 37 °C for 30 h with shaking at 900 rpm. To separate the non-aggregated monomers from the formed fibrils, the reaction mixture was centrifuged at 12,000× g for 5 min, and the resulting pellet was washed three times with 500 μL of 20 mM Tris-HCl, pH 7.4. The supernatants from the three centrifugation steps were combined, and the concentration of the monomer in the resulting supernatant was determined in a BCA assay (Thermo Fisher Scientific, Waltham, MA, USA) (with a BSA standard curve). Determination of the concentration of fibrils formed was carried out by subtracting the amount of β-amyloid1−42 peptide monomer in the supernatant from the initial amount used for fibrillation.
The pellets of the fibrils obtained above (Section 4.2.1) were resuspended in 20 mM of Tris-HCl, pH 7.4 and diluted as needed for the binding assays.
(§1) A fixed concentration of [^3H]DCVJ (10 nM) and α-synuclein aggregates (125 nM), prepared as described above (Section 4.2.3), was used with different final concentrations of the DABTAs from 0.01 to 100 nM (see SI Figure S1). The experiment was carried out in quintuplicate for each concentration. The mixture was incubated for 2 h in a final volume of 200 μL per well after dilution with 20 mM of Tris-HCl, pH 7.4. The incubated mixtures were filtered through a Perkin Elmer GF/B glass filter via a TOMTEC cell harvester and immediately washed thrice with 1 mL of deionized water. The filters containing the bound ligands were dried and afterwards mixed with 3 mL of BetaPlate Scint solution (Perkin Elmer Life Sciences, Waltham, MA, USA) and left there for 2 h before counting in a Wallac 1450 MicroBeta TriLux Liquid Scintillation Counter (PerkinElmer Life Sciences, Waltham, MA, USA). For the determination of the inhibition constants, data were analyzed using GraphPad Prism software (version 7.0) to obtain IC50 values by fitting the data to the equation Y = bottom + (top − bottom)/(1 + 10(x − log IC50)). Ki values were calculated from IC50 values using the equation Ki = IC50/(1 + [radioligand]/Kd). […] Further protocol was carried out as for [^3H]DCVJ (see SI Figure S3).
Fixed concentrations (125 nM) of Aβ1−42, tau aggregates, and [^3H]DCVJ (10 nM and 20 nM for the Aβ1−42 and tau competition experiments respectively) were used with different concentrations of cold versions of the tracers from 1 to 1000 nM (See SI Figure S2). The experiment was performed in quadruplicate for each concentration. […]

For another data set, the target named is tau fibrils (Homo sapiens, UniProt P10636). Kind of data set: Competition binding assay against [^3H]DCVJ, tau fibrils. The following applies: [^3H]DCVJ was used (20 nM); tau aggregates 125 nM. As for the experimental part: as §1, with “Recombinant tau monomer (R&D systems, Minneapolis, MN, USA) was dissolved in 20 mM of Tris HCl, pH 8.0, 100 mM of NaCl, 25 μM of low-MW heparin, and 0.5 mM of dithiothreitol to a final concentration of 300 µg/mL. The mixture was incubated with shaking at 900 rpm at 37 °C for 48 h. To separate the non-aggregated monomers from the formed fibrils, the reaction mixture was centrifuged at 12,000× g for 5 min, and the resulting pellet was washed three times with 500 μL of 20 mM Tris-HCl, pH 7.4. The supernatants from the three centrifugation steps were combined, and the concentration of the monomer in the resulting supernatant was determined in a BCA assay(Thermo Fisher Scientific, Waltham, MA, USA) (with a BSA standard curve). Determination of the concentration of fibrils formed was carried out by subtracting the amount of tau peptide monomer in the supernatant from the initial amount used for fibrillation. The pellets of the fibrils obtained above (Section 4.2.1) were resuspended in 20 mM of Tris-HCl, pH 7.4 and diluted as needed for the binding assays. A fixed” for “A fixed”, “Figure S3). Fixed concentrations (125 nM) of Aβ1−42, tau aggregates, and [^3H]DCVJ (10 nM and 20 nM for the Aβ1−42 and tau competition experiments respectively) were used with different concentrations of cold versions of the tracers from 1 to 1000 nM (See SI Figure S2). The experiment was performed in quadruplicate for each concentration. Further procedures followed the same already described in Section 4.2.3.1.” for “Figure S3).”

Data set [1] in a line: Solubility in the incubation medium of the binding assays. It is filed as physicochemical. The following applies: incubation buffer of the binding assays.

A value given as a limit tells only on which side of the number the result lay.

The source of these data is PMC10671360, “In Silico and In Vitro Study towards the Rational Design of 4,4′-Disarylbisthiazoles as a Selective α-Synucleinopathy Biomarker” (International Journal of Molecular Sciences, 2023).

What is called Ki is the equilibrium dissociation constant of an inhibitor or competing ligand from its target.

T1 sequence (P05067 672-713): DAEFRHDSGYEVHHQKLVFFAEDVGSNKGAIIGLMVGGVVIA
Chain of tau fibrils (P10636 2-758): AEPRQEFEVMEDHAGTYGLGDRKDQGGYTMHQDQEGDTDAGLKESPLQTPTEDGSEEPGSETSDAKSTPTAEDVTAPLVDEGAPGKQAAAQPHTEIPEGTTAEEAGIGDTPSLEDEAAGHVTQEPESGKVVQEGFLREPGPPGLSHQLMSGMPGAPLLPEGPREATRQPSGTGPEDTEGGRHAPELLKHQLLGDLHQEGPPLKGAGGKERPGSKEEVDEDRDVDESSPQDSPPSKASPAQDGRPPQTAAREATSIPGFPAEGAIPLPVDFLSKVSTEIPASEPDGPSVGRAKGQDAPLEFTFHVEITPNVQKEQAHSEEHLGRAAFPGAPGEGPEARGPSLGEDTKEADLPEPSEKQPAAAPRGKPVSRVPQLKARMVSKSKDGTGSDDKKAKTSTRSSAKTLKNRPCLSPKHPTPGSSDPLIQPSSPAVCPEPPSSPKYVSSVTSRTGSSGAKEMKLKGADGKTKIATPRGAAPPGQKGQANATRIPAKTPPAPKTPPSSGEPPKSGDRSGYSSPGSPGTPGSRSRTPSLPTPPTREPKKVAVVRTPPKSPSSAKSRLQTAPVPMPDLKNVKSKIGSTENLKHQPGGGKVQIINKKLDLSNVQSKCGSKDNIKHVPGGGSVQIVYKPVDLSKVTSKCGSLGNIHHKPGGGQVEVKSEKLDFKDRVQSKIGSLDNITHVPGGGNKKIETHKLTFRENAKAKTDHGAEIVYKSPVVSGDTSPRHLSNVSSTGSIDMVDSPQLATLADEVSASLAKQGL

Consider `FCCOc1cnc(-c2csc(-c3nc(-c4cnc5c(c4)OCO5)cs3)n2)nc1` [f4, 6-(4′-(5-(2-Fluoroethoxy)pyrimidin-2-yl)-[2,2′-bithiazol]-4-yl)-[1,3]dioxolo[4,5-b]pyridine], for which the Ki is 251 nM on Aβ1−42 fibrils and 465 nM on tau fibrils.
Consider `Fc1ncc(-c2csc(-c3nc(-c4cnc5c(c4)OCO5)cs3)n2)cn1` [d10], for which the results for the Ki on Aβ1−42 fibrils and at tau fibrils were 407 nM and > 1000 nM, respectively. Besides, the “solubility in the incubation medium” value in data set [1] is listed as “decreased solubility”.
For the molecule `FCCOc1cnc(-c2csc(-c3nc(-c4ccc5c(c4)OCO5)cs3)n2)nc1` [f5, 4-(Benzo[d][1,3]dioxol-5-yl)-4′-(5-(2-fluoroethoxy)pyrimidin-2-yl)-2,2′-bithiazole], the Ki was 134 nM on Aβ1−42 fibrils and 515 nM at tau fibrils.
Taken in the same sequence, the figures for `FCCOCCOc1cnc(-c2csc(-c3nc(-c4ccc5c(c4)OCO5)cs3)n2)nc1` [f6, 4-(Benzo[d][1,3]dioxol-5-yl)-4′-(5-(2-(2-fluoroethoxy)ethoxy)pyrimidin-2-yl)-2,2′-bithiazole] were 198 nM and 437 nM.
